This is an account of results in patent US6448405B1, “Steroid receptor modulator compounds and methods” (Ligand Pharmaceuticals Incorporated, priority 1994, dated 2002).

Read-outs that look alike come from different tables or passages of the source. Where only a bound is given, the exact number is not on record here.

The target in one experiment is T1, human AR (Homo sapiens, UniProt P10275).
T1 construct: expressed in transfected cells; host or cells: COS-1 cells, transient transfection
T1 sequence (P10275 1-920): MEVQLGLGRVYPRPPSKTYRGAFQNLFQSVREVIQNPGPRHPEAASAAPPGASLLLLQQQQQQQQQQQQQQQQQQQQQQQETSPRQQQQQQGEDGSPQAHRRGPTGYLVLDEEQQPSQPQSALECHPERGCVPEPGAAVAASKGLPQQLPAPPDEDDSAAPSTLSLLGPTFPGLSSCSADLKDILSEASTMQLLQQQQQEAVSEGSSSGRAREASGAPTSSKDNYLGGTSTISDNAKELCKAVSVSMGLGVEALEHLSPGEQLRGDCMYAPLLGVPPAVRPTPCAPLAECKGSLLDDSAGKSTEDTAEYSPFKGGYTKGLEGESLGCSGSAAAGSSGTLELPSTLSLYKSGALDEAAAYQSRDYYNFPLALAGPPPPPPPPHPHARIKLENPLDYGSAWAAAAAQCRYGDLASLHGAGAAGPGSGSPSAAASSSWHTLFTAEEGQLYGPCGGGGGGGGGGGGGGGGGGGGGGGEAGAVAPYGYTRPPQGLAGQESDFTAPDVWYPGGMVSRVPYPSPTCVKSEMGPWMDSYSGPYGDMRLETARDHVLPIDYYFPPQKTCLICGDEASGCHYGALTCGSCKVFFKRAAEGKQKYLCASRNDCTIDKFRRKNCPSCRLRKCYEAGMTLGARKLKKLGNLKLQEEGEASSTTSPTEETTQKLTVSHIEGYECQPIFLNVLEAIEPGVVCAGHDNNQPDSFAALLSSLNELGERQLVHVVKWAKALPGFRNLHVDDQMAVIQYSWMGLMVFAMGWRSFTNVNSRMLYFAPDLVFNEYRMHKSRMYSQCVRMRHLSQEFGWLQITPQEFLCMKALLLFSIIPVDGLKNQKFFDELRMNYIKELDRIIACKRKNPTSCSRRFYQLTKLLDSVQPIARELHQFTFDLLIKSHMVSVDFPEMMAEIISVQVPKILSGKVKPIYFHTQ
The experiment is described as follows: AR whole cell binding assay, transfected COS-1 cells, 3H-DHT.

The target of experiment [1] is T2, human androgen receptor (AR) (Homo sapiens, UniProt P10275).
T2 construct: expressed in transfected cells; host or cells: CV-1 cells, transient transfection
T2 sequence (P10275 1-920): T1 sequence (P10275 1-920)
The experiment is described as follows: Co-transfection assay, AR agonist and antagonist activity, CV-1 cells (pRShAR). The experiment is classed as cell-based. The following applies: for AR Antagonist CV-1 Cells Efficacy (%): % maximal inhibition.

`CC1=CC(C)(C)Nc2cc3oc(=O)cc(C(F)(F)F)c3cc21` [Compound 238, 1,2-Dihydro-2,2,4-trimethyl-6-trifluoromethyl-8-pyranono[5,6-g]quinoline] registered a Ki at human AR of 0.044 µM. In experiment [1], this compound registered an EC50 of 0.01 µM. In addition, the IC50 in experiment [1] was over 10 µM; in experiment [1] (read-out: AR Antagonist CV-1 Cells Potency, Table 2, antagonist mode, IC50), over 10 µM. Also, in experiment [1] (Table 2, agonist mode, relative to DHT), the “AR Agonist CV-1 Cells Efficacy (%)” value came out at 96%. Moreover, the “AR Antagonist CV-1 Cells Efficacy (%)” value in experiment [1] (Table 2, antagonist mode) was “na (na = not active (i.e. efficacy of <20 and potency of >10,000))”; in experiment [1] (antagonist mode, DHT at its EC50), “na (na = not active (i.e. efficacy of <20 and potency of >10,000))”.
